Results on 18 compounds are retold here after PubChem BioAssay AID248 (DTP/NCI, 2004).

The structures appear in SMILES notation. Several values for one entry are separate records, joined by “and”; a condition that tells them apart may be missing. Identical values can stand only once. Toxic doses and inconclusive results are not listed.

The experiment concerns L1210 leukemia ip in BDF1 mice, survival T/C. Nature of the experiment: NCI In Vivo Anticancer Drug Screen. Data for tumor model L1210 Leukemia (intraperitoneal) in B6D2F1 (BDF1) mice. The settings on record: endpoint: mean survival time, higher = longer survival. In outline:
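Tumor was transplanted into mice, which were then dosed with test compound or vehicle alone. Survival was recorded for each group, and the treated figure was expressed relative to the control figure.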

Setting [1] is: dose: 25.0 mg/kg/injection, schedule: Q01DX009 (ip), vehicle: saline.
The mark [2] stands for this setting: dose: 50.0 mg/kg/injection, schedule: Q01DX009 (ip), vehicle: saline.
Where [3] appears, read: dose: 100.0 mg/kg/injection, schedule: Q01DX009 (ip), vehicle: saline.
Setting [4] is: dose: 400.0 mg/kg/injection, schedule: Q01DX009 (ip), vehicle: saline.
The mark [5] stands for this setting: dose: 100.0 mg/kg/injection, schedule: Q04DX003 (ip), vehicle: saline.
Where [6] appears, read: dose: 200.0 mg/kg/injection, schedule: Q01DX009 (ip), vehicle: saline.
Where [7] appears, read: dose: 200.0 mg/kg/injection, schedule: Q04DX003 (ip), vehicle: saline.
Where [8] appears, read: dose: 400.0 mg/kg/injection, schedule: Q04DX003 (ip), vehicle: saline.
Setting [9] is: dose: 12.5 mg/kg/injection, schedule: Q01DX009 (ip), vehicle: Klucel (hydroxypropylcellulose) (HPC).
The mark [10] stands for this setting: dose: 50.0 mg/kg/injection, schedule: Q01DX001 (ip), vehicle: saline.
The mark [11] stands for this setting: dose: 100.0 mg/kg/injection, schedule: Q01DX001 (ip), vehicle: saline.
Setting [12] is: dose: 200.0 mg/kg/injection, schedule: Q01DX001 (ip), vehicle: saline.
Where [13] appears, read: dose: 400.0 mg/kg/injection, schedule: Q01DX001 (ip), vehicle: saline.
Where [14] appears, read: dose: 100.0 mg/kg/injection, schedule: Q01DX009 (ip), vehicle: Klucel (hydroxypropylcellulose) (HPC).
The mark [15] stands for this setting: dose: 200.0 mg/kg/injection, schedule: Q01DX009 (ip), vehicle: Klucel (hydroxypropylcellulose) (HPC).
Setting [16] is: dose: 400.0 mg/kg/injection, schedule: Q01DX009 (ip), vehicle: Klucel (hydroxypropylcellulose) (HPC).
Setting [17] is: dose: 100.0 mg/kg/injection, schedule: Q04DX003 (ip), vehicle: saline with Tween-80.
[18] abbreviates: dose: 200.0 mg/kg/injection, schedule: Q04DX003 (ip), vehicle: saline with Tween-80.
[19] abbreviates: dose: 400.0 mg/kg/injection, schedule: Q04DX003 (ip), vehicle: saline with Tween-80.

In the case of `CC(=O)Nc1ccc(S(=O)(=O)Oc2ccc([N+](=O)[O-])cc2)cc1`, the T/C reads like this: under setting [1], 94 % of control; under setting [2], 96 % of control; under setting [3], 94 % of control; under setting [4], 100 % of control.
For the compound `Cc1cc([N+](=O)[O-])c(C)c([N+](=O)[O-])c1Cl`, the T/C (dose: 100.0 mg/kg/injection, schedule: Q01DX001 (ip), vehicle: acetone) is 101 % of control; the T/C under setting [3] is 90 % of control; the T/C under setting [5] was 95 % of control; the T/C (dose: 200.0 mg/kg/injection, schedule: Q01DX001 (ip), vehicle: acetone) was 97 % of control; the T/C under setting [6] was 95 % of control; the T/C under setting [7] was 103 % of control. Further, the T/C was 95 % of control (dose: 400.0 mg/kg/injection, schedule: Q01DX001 (ip), vehicle: acetone); 88 % of control under setting [4]; 98 % of control under setting [8].
Take `N=C(N)c1nn(C2OC(CO)C(O)C2O)c2ncnc(N)c12` (configuration not stated): the T/C was 102 % of control (dose: 3.12 mg/kg/injection, schedule: Q01DX009 (ip), vehicle: Klucel (hydroxypropylcellulose) (HPC)); 124 % of control (dose: 6.25 mg/kg/injection, schedule: Q01DX009 (ip), vehicle: Klucel (hydroxypropylcellulose) (HPC)); 159 % of control (dose: 9.0 mg/kg/injection, schedule: Q01DX005 (ip), vehicle: saline); 115 % of control under setting [9]; 185 % of control (dose: 15.0 mg/kg/injection, schedule: Q01DX005 (ip), vehicle: saline); 201 % of control (dose: 25.0 mg/kg/injection, schedule: Q01DX005 (ip), vehicle: saline). The T/C (dose: 42.0 mg/kg/injection, schedule: Q01DX005 (ip), vehicle: saline) is 204 % of control.
Take `O=C(Nc1ccc(C2=NCCN2)cc1)Nc1cccc(NC(=S)Nc2ccc(C3=NCCN3)cc2)c1`: the T/C is, setting by setting: (dose: 1.88 mg/kg/injection, schedule: Q01DX Z (ip), vehicle: saline) 95 % of control; (dose: 3.75 mg/kg/injection, schedule: Q01DX Z (ip), vehicle: saline) 103 % of control; (dose: 7.5 mg/kg/injection, schedule: Q01DX Z (ip), vehicle: saline) 113 % of control; (dose: 15.0 mg/kg/injection, schedule: Q01DX Z (ip), vehicle: saline) 150 % of control; (dose: 15.0 mg/kg/injection, schedule: Q01DX Z (oral), vehicle: saline) 97 % of control; (dose: 30.0 mg/kg/injection, schedule: Q01DX Z (ip), vehicle: saline) 150 % of control. The T/C (dose: 30.0 mg/kg/injection, schedule: Q01DX Z (oral), vehicle: saline) is 100 % of control; the T/C (dose: 60.0 mg/kg/injection, schedule: Q01DX Z (oral), vehicle: saline) was 97 % of control; the T/C (dose: 120.0 mg/kg/injection, schedule: Q01DX Z (oral), vehicle: saline) is 107 % of control.
As to `CCN(CC)CCn1c2ccccc2c2cnccc21`, the T/C is, setting by setting: (dose: 25.0 mg/kg/injection, schedule: Q04DX003 (ip), vehicle: saline) 100 % of control; (dose: 50.0 mg/kg/injection, schedule: Q04DX003 (ip), vehicle: saline) 97 % of control.
For the compound `O=c1ccc(=O)n(CCc2ccccn2)[nH]1`, the T/C was 97 % of control under setting [10], 97 % of control under setting [11], 94 % of control under setting [12] and 97 % of control under setting [13].
For the compound `CN(CCNC(=O)Nc1ccccc1)c1ccccc1`, the T/C runs as follows: under setting [14], 101 % of control; under setting [15], 97 % of control; under setting [16], 105 % of control.
Regarding `CCCCCCCC(=O)c1ccc(NC(C)=O)cc1`, the T/C by setting is: under setting [14], 103 % of control; (dose: 100.0 mg/kg/injection, schedule: Q04DX003 (ip), vehicle: Klucel (hydroxypropylcellulose) (HPC)) 99 % of control; under setting [15], 95 % of control; (dose: 200.0 mg/kg/injection, schedule: Q04DX003 (ip), vehicle: Klucel (hydroxypropylcellulose) (HPC)) 92 % of control; under setting [16], 102 % of control; (dose: 400.0 mg/kg/injection, schedule: Q04DX003 (ip), vehicle: Klucel (hydroxypropylcellulose) (HPC)) 100 % of control.
Regarding `CCOC(=O)NC1CCCCC1`, the T/C by setting is: (dose: 100.0 mg/kg/injection, schedule: Q01DX001 (ip), vehicle: gum acacia) 97 % of control; (dose: 200.0 mg/kg/injection, schedule: Q01DX001 (ip), vehicle: gum acacia) 97 % of control; (dose: 400.0 mg/kg/injection, schedule: Q01DX001 (ip), vehicle: gum acacia) 105 % of control.
As to `CCCCN(CCCC)C(=O)CC(C)(O)c1ccccc1` (configuration not stated), the T/C was 96 % of control under setting [10], 107 % of control under setting [11], 94 % of control under setting [12] and 96 % of control under setting [13].
Take `CCCCNC(=O)C1CC2c3c(Br)ccc4c3C(CC2N(C)C1)CN4C(C)=O` (configuration not stated): the T/C (dose: 20.0 mg/kg/injection, schedule: Q01DX001 (ip), vehicle: Klucel (hydroxypropylcellulose) (HPC)) was 98 % of control.
Turning to `Cc1cc(C)c(F)[c]([Hg][Br])c1N`, the T/C was 96 % of control under setting [9]; 94 % of control (dose: 37.5 mg/kg/injection, schedule: Q01DX001 (ip), vehicle: Klucel (hydroxypropylcellulose) (HPC)); 96 % of control (dose: 50.0 mg/kg/injection, schedule: Q01DX009 (ip), vehicle: Klucel (hydroxypropylcellulose) (HPC)); 89 % of control under setting [14].
Take `CCCCCCOC(=O)Nc1cccc(O)c1`: the T/C reads like this: under setting [17], 104 % of control; under setting [18], 101 % of control; under setting [19], 91 % of control.
As to `CC(C)(C)N1CC(C(=O)c2ccccc2)C1c1ccccc1` (configuration not stated), the T/C was 94 % of control under setting [11]; 96 % of control under setting [14]; 96 % of control and 107 % of control under setting [17]; 94 % of control under setting [12]; 101 % of control under setting [15]; 90 % of control and 94 % of control under setting [18]. The T/C by setting is: under setting [13], 92 % of control; under setting [16], 100 % of control; under setting [19], 96 % of control and 98 % of control.
As to `O=C1C(CO)=C[C@@H](O)[C@H]2O[C@@H]12`, the T/C is 93 % of control (dose: 3.0 mg/kg/injection, schedule: Q01DX009 (ip), vehicle: saline); 93 % of control (dose: 6.0 mg/kg/injection, schedule: Q01DX009 (ip), vehicle: saline); 95 % of control (dose: 12.0 mg/kg/injection, schedule: Q01DX009 (ip), vehicle: saline); 98 % of control (dose: 25.0 mg/kg/injection, schedule: Q01DX001 (ip), vehicle: saline); 98 % of control under setting [1]; 121 % of control under setting [10]. The T/C reads like this: under setting [2], 121 % of control; (dose: 75.0 mg/kg/injection, schedule: Q01DX009 (ip), vehicle: saline) 102 % of control; under setting [11], 103 % of control and 123 % of control; (dose: 150.0 mg/kg/injection, schedule: Q01DX009 (ip), vehicle: saline) 109 % of control; under setting [12], 106 % of control; under setting [13], 111 % of control.
As to `CCOC(=O)c1c(-c2ccc(OC)c(OC)c2OCc2ccccc2)c(C)c(C)[nH]c1=O`, the T/C (dose: 75.0 mg/kg/injection, schedule: Q01DX001 (ip), vehicle: carboxymethylcellulose (CMC)) is 102 % of control; the T/C (dose: 150.0 mg/kg/injection, schedule: Q01DX001 (ip), vehicle: carboxymethylcellulose (CMC)) is 102 % of control; the T/C (dose: 300.0 mg/kg/injection, schedule: Q01DX001 (ip), vehicle: carboxymethylcellulose (CMC)) is 102 % of control.
Regarding `Nc1cc(S(=O)(=O)O)cc2ccc(S(=O)(=O)O)cc12`, the T/C is 102 % of control under setting [3]; 111 % of control under setting [5]; 96 % of control under setting [6]; 101 % of control under setting [7]; 102 % of control under setting [4]; 93 % of control under setting [8].
Take `CCOP(=O)(OCC)C(=O)N(CC)CC`: the T/C is, setting by setting: under setting [14], 101 % of control; under setting [15], 90 % of control; under setting [16], 91 % of control.
